# Legend:
# PficOrco/PficOR8 = experiment: Fluo4-AM calcium fluorescence, FlexStation-3, HEK293 cells; type: cell-based, Planococcus ficus; conditions: agonist; doxycycline-induced cells; 0.5 % DMSO
# PficOrco/PficOR6 = experiment: as above; type: cell-based, Planococcus ficus; conditions: agonist; doxycycline-induced cells; 0.5 % DMSO
Structure (SMILES),EC50 (PficOrco/PficOR8) [µM],EC50 (PficOrco/PficOR6) [µM]
CCCC(=O)OCC(CC=C(C)C)=C(C)C [2-isopropyliden-5-methyl-4-hexen-1-yl butyrate],8.6,
C=C(C)C(CC=C(C)C)COC(=O)C=C(C)C (stereo not drawn) [lavandulyl senecioate],52.6,4.6

# Reference: paper PMC10837065 (Current Research in Insect Science, 2024)
